Data published in patent US5922771A, “Benzocycloalkene compounds, their production and use” (Takeda Chemical Industries, Ltd., priority 1995, dated 1999).

Target: melatonin receptor
Test: Action of inhibiting 2-[^125 I]iodomelatonin binding
Set-up: species or system chicken (white leghorn)
Details: forebrain membranes of 7-day-old chickens; 80 pM 2-[^125 I]iodomelatonin; 90 minutes at 25° C., pH 7.7; read-out: IC50, inhibition of 2-[^125 I]iodomelatonin binding
Experimental: The forebrains of 7-day-old chickens (white leghorn) were homogenized with ice-cooled assay-buffer (50 mM Tris-HCl, pH 7.7, at 25° C.) and centrifuged at 44,000×g for 10 minutes to give pellet. The pellet was washed once with the same buffer solution, which was further homogenized with the assay-buffer to make a protein concentration of 0.3-0.4 mg/mL. The homogenate was used as a membrane sample. In a test tube, the membrane sample and a ligand (80 pM 2-[^125 I]iodomelatonin,ca. 100,000 dpm) were mixed to make the whole volume 0.5 mL. The mixture was incubated for 90 minutes at 25° C., to which was added 3 mL of ice-cooled assay buffer, immediately followed vacuum filtration on Whatman GF/B which was further washed twice with 3 mL each of ice-cold assay buffer. The radioactivity on the filter was determined by means of gamma-counter. Specific binding was calculated by subtracting the non-specific binding which was determined in the presence of 10 μM melatonin. The 50% inhibiting concentration (IC50) was determined by the log-probit analysis.

IC50: 87 pM
SMILES: COc1ccc2c(c1)C(CCNC(=O)C(F)(F)F)=C(c1ccccc1)C2 [Working Example 1, 2,2,2-Trifluoro-N-[2-(5-methoxy-2-phenyl-1H-inden-3-yl)ethyl]acetamide]
